Measured values from PubChem BioAssay (NCI).
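Results reflect a 48-hour exposure of cells in 96-well plates to compound at five concentrations. The concentration for 50% growth inhibition is given as GI50. The concentration for full growth arrest is given as TGI.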

Legend:
Assay in all cases: growth of human tumour cells (NCI), 48 h
CAKI-1 renal = test system: CAKI-1 renal
M14 melanoma = test system: M14 melanoma
SW-620 colon = test system: SW-620 colon
RXF 393 renal = test system: RXF 393 renal
HCC-2998 colon = test system: HCC-2998 colon
PC-3 prostate = test system: PC-3 prostate
NCI-H522 lung = test system: NCI-H522 lung
DU-145 prostate = test system: DU-145 prostate
OVCAR-5 ovarian = test system: OVCAR-5 ovarian
ACHN renal = test system: ACHN renal
K-562 leukemia = test system: K-562 leukemia
UO-31 renal = test system: UO-31 renal
UACC-62 melanoma = test system: UACC-62 melanoma
SNB-75 CNS = test system: SNB-75 CNS
OVCAR-4 ovarian = test system: OVCAR-4 ovarian
SN12C renal = test system: SN12C renal
HS 578T breast = test system: HS 578T breast
SF-539 CNS = test system: SF-539 CNS
UACC-257 melanoma = test system: UACC-257 melanoma
HL-60(TB) leukemia = test system: HL-60(TB) leukemia
LOX IMVI melanoma = test system: LOX IMVI melanoma
U251 CNS = test system: U251 CNS
SK-MEL-2 melanoma = test system: SK-MEL-2 melanoma
SR leukemia = test system: SR leukemia
MDA-MB-435 = test system: MDA-MB-435
MOLT-4 leukemia = test system: MOLT-4 leukemia
SK-OV-3 ovarian = test system: SK-OV-3 ovarian
TK-10 renal = test system: TK-10 renal
RPMI-8226 leukemia = test system: RPMI-8226 leukemia
BT-549 breast = test system: BT-549 breast
HCT-15 colon = test system: HCT-15 colon
A498 renal = test system: A498 renal
A549 NSCLC = test system: A549 NSCLC
COLO 205 colon = test system: COLO 205 colon
NCI-H226 lung = test system: NCI-H226 lung
IGROV1 ovarian = test system: IGROV1 ovarian
HOP-92 NSCLC = test system: HOP-92 NSCLC
SK-MEL-28 melanoma = test system: SK-MEL-28 melanoma
NCI-H460 lung = test system: NCI-H460 lung
HOP-62 NSCLC = test system: HOP-62 NSCLC
786-0 renal = test system: 786-0 renal
MALME-3M melanoma = test system: MALME-3M melanoma
HT29 colon = test system: HT29 colon
HCT-116 colon = test system: HCT-116 colon
MDA-MB-468 breast = test system: MDA-MB-468 breast
KM12 colon = test system: KM12 colon
MCF7 breast = test system: MCF7 breast
OVCAR-8 ovarian = test system: OVCAR-8 ovarian
SF-268 CNS = test system: SF-268 CNS
SNB-19 CNS = test system: SNB-19 CNS
NCI/ADR-RES ovarian = test system: NCI/ADR-RES ovarian
SF-295 CNS = test system: SF-295 CNS
CCRF-CEM leukemia = test system: CCRF-CEM leukemia
OVCAR-3 ovarian = test system: OVCAR-3 ovarian
EKVX NSCLC = test system: EKVX NSCLC
NCI-H23 lung = test system: NCI-H23 lung
MDA-MB-231 breast = test system: MDA-MB-231 breast
SK-MEL-5 melanoma = test system: SK-MEL-5 melanoma
T-47D breast = test system: T-47D breast

C=C1CCC2C3(C)COC(c4cccc(F)c4)OC3CCC2(C)C1C/C=C1/C(=O)OCC1O (stereo not drawn)
GI50 (CAKI-1 renal): 7.43 µM | TGI (CAKI-1 renal): 20.2 µM | GI50 (M14 melanoma): 6.93 µM | TGI (M14 melanoma): 21.3 µM | GI50 (SW-620 colon): 1.48 µM | TGI (SW-620 colon): 3.26 µM | GI50 (RXF 393 renal): 5.88 µM | TGI (RXF 393 renal): 19.6 µM | GI50 (HCC-2998 colon): 8.09 µM | TGI (HCC-2998 colon): 20.9 µM | GI50 (PC-3 prostate): 3.3 µM | TGI (PC-3 prostate): 15.3 µM | GI50 (NCI-H522 lung): 1.71 µM | TGI (NCI-H522 lung): 4 µM | GI50 (DU-145 prostate): 6.21 µM | TGI (DU-145 prostate): 18.5 µM | GI50 (OVCAR-5 ovarian): 4.04 µM | TGI (OVCAR-5 ovarian): 15.9 µM | GI50 (ACHN renal): 4.48 µM | TGI (ACHN renal): 15.8 µM | GI50 (K-562 leukemia): 3.39 µM | TGI (K-562 leukemia): 16.1 µM | GI50 (UO-31 renal): 5.14 µM | TGI (UO-31 renal): 18.2 µM | GI50 (UACC-62 melanoma): 4.68 µM | TGI (UACC-62 melanoma): 16.9 µM | GI50 (SNB-75 CNS): 2.13 µM | TGI (SNB-75 CNS): 10.8 µM | GI50 (OVCAR-4 ovarian): 4.32 µM | TGI (OVCAR-4 ovarian): 18.3 µM | GI50 (SN12C renal): 2.95 µM | TGI (SN12C renal): 9.4 µM | GI50 (HS 578T breast): 4.62 µM | TGI (HS 578T breast): 39.7 µM | GI50 (SF-539 CNS): 1.96 µM | TGI (SF-539 CNS): 3.81 µM | GI50 (UACC-257 melanoma): 5.51 µM | TGI (UACC-257 melanoma): 19.7 µM | GI50 (HL-60(TB) leukemia): 1.98 µM | TGI (HL-60(TB) leukemia): 6.83 µM | GI50 (LOX IMVI melanoma): 1.67 µM | TGI (LOX IMVI melanoma): 3.08 µM | GI50 (U251 CNS): 2.25 µM | TGI (U251 CNS): 6.24 µM | GI50 (SK-MEL-2 melanoma): 5.95 µM | TGI (SK-MEL-2 melanoma): 19.1 µM | GI50 (SR leukemia): 3.52 µM | TGI (SR leukemia): 17.7 µM | GI50 (MDA-MB-435): 2.61 µM | TGI (MDA-MB-435): 9.71 µM | GI50 (MOLT-4 leukemia): 3.24 µM | TGI (MOLT-4 leukemia): 12 µM | GI50 (SK-OV-3 ovarian): 16.1 µM | TGI (SK-OV-3 ovarian): 29.9 µM | GI50 (TK-10 renal): 14.8 µM | TGI (TK-10 renal): 28.2 µM | GI50 (RPMI-8226 leukemia): 2.58 µM | TGI (RPMI-8226 leukemia): 6.78 µM | GI50 (BT-549 breast): 2.7 µM | TGI (BT-549 breast): 7.09 µM | GI50 (HCT-15 colon): 2.61 µM | TGI (HCT-15 colon): 8.15 µM | GI50 (A498 renal): 14.1 µM | TGI (A498 renal): 27.7 µM | GI50 (A549 NSCLC): 7.04 µM | TGI (A549 NSCLC): 22.7 µM | GI50 (COLO 205 colon): 4.09 µM | TGI (COLO 205 colon): 15.6 µM | GI50 (NCI-H226 lung): 1.85 µM | TGI (NCI-H226 lung): 3.87 µM | GI50 (IGROV1 ovarian): 10.3 µM | TGI (IGROV1 ovarian): 23.2 µM | GI50 (HOP-92 NSCLC): 6.48 µM | TGI (HOP-92 NSCLC): 21.2 µM | GI50 (SK-MEL-28 melanoma): 5.58 µM | TGI (SK-MEL-28 melanoma): 18 µM | GI50 (NCI-H460 lung): 4.03 µM | TGI (NCI-H460 lung): 18.6 µM | GI50 (HOP-62 NSCLC): 17.3 µM | TGI (HOP-62 NSCLC): 31.6 µM | GI50 (786-0 renal): 2.69 µM | TGI (786-0 renal): 7.51 µM | GI50 (MALME-3M melanoma): 13.2 µM | TGI (MALME-3M melanoma): 26.2 µM | GI50 (HT29 colon): 2.19 µM | TGI (HT29 colon): 4.75 µM | GI50 (HCT-116 colon): 1.85 µM | TGI (HCT-116 colon): 3.62 µM | GI50 (MDA-MB-468 breast): 2.11 µM | TGI (MDA-MB-468 breast): 6.28 µM | GI50 (KM12 colon): 3.92 µM | TGI (KM12 colon): 14.8 µM | GI50 (MCF7 breast): 2.25 µM | TGI (MCF7 breast): 7.71 µM | GI50 (OVCAR-8 ovarian): 1.86 µM | TGI (OVCAR-8 ovarian): 4.27 µM | GI50 (SF-268 CNS): 6 µM | TGI (SF-268 CNS): 19.8 µM | GI50 (SNB-19 CNS): 13.1 µM | TGI (SNB-19 CNS): 25.9 µM | GI50 (NCI/ADR-RES ovarian): 1.98 µM | TGI (NCI/ADR-RES ovarian): 4.08 µM | GI50 (SF-295 CNS): 3.87 µM | TGI (SF-295 CNS): 15.1 µM | GI50 (CCRF-CEM leukemia): 2.35 µM | TGI (CCRF-CEM leukemia): 7.34 µM | GI50 (OVCAR-3 ovarian): 1.87 µM | TGI (OVCAR-3 ovarian): 4.08 µM | GI50 (EKVX NSCLC): 16.5 µM | TGI (EKVX NSCLC): 30.8 µM | GI50 (NCI-H23 lung): 11 µM | TGI (NCI-H23 lung): 24.2 µM | GI50 (MDA-MB-231 breast): 2.61 µM | TGI (MDA-MB-231 breast): 7.25 µM | GI50 (SK-MEL-5 melanoma): 11 µM | TGI (SK-MEL-5 melanoma): 23 µM | GI50 (T-47D breast): 3.61 µM | TGI (T-47D breast): 16 µM
